For 27 molecules, IC50 results are on record in patent EP1534716B1, “HETEROBICYCLIC PYRAZOLE DERIVATIVES AS KINASE INHIBITORS” (priority 2002, dated 2004).

Each structure is given as a SMILES string.

One experiment deals with T1, Aurora-2 (Homo sapiens, UniProt O14965).
T1 sequence (O14965 1-403): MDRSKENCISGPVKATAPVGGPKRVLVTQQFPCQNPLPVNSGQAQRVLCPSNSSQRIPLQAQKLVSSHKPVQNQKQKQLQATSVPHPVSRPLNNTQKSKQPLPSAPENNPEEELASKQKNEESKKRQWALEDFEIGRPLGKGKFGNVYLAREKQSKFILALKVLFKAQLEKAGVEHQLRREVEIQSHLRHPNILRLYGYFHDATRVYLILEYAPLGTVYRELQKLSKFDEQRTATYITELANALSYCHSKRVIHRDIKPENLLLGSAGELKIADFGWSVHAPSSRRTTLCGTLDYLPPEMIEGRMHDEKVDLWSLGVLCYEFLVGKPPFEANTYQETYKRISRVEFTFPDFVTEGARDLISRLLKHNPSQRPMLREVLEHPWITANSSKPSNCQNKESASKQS
Put plainly: Inhibition assay of Aurora-2 activity (SPA). The note with it: 10 µM ATP, 60 minutes at room temperature. The class given is biochemical. Here is the method: (§1) The inhibiting activity of putative cdk/cyclin inhibitors and the potency of selected compounds is determined through a method of assay based on the use of the SPA technology (Amersham Pharmacia Biotech).
(§2) The assay consists of the transfer of radioactivity labelled phosphate moiety by the kinase to a biotinylated substrate. The resulting 33P-labelled biotinylated product is allowed to bind to streptavidin-coated SPA beads (biotin capacity 130 pmol/mg), and light emitted was measured in a scintillation counter.
(§3) Experimental data were analyzed by the computer program GraphPad Prizm using the four parameter logistic equation: [formula] where x is the logarithm of the inhibitor concentration, y is the response; y starts at bottom and goes to top with a sigmoid shape.
Inhibition assay of Aurora-2 activity
After 60 minutes at room temperature incubation, reaction was stopped and biotinylated peptide captured by adding 100 µl of bead suspension.
Stratification: 100 µl of CsC12 5 M were added to each well and let stand 4 hour before radioactivity was counted in the Top-Count instrument.
IC50 determination: see above
Usually IC50 stands for the midpoint of a concentration-inhibition curve. Low readings indicate greater potency in that assay, high ones weaker potency in that assay. In the case of `C[C@@H](NC(=O)c1cc2[nH]nc(NC(=O)c3ccc(CN4CCOCC4)o3)c2s1)c1ccccc1` [Compound 82, 3-{[5-(morpholin-4-ylmethyl)-2-furoyl]amino}-N-[(1R)-1-phenylethyl]-1H-thieno[3,2-c]pyrazole-5-carboxamide], the IC50 was less than 100 nM.

`Cc1cccc(Cl)c1CNC(=O)c1cc2[nH]nc(NC(=O)c3ccc(N4CCN(C)CC4)cc3)c2s1` [Compound 122, N-(2-chloro-6-methylbenzyl)-3-{[4-(4-methylpiperazin-1-yl)benzoyl]amino}-1H-thieno[3,2-c]pyrazole-5-carboxamide bis(trifluoroacetate)] displayed an IC50 of less than 100 nM.

The molecule `CCCCNC(=O)c1cc2[nH]nc(NC(=O)c3cccs3)c2s1` [Compound 79, N-butyl-3-[(thien-2-ylcarbonyl)amino]-1H-thieno[3,2-c]pyrazole-5-carboxamide] gave a 50% inhibitory concentration (IC50) of less than 100 nM.

For `CN1CCN(c2ccc(C(=O)Nc3n[nH]c4cc(C(=O)N(C)Cc5ccccc5)sc34)cc2)CC1` [Compound 113, N-benzyl-N-methyl-3-{[4-(4-methylpiperazin-1-yl)benzoyl]amino}-1H-thieno[3,2-c]pyrazole-5-carboxamide], the IC50 is less than 100 nM.

In the case of `CCc1cccc(CC)c1NC(=O)c1cc2[nH]nc(NC(=O)c3ccc(N4CCN(C)CC4)cc3)c2s1` [Compound 107, N-(2,6-diethylphenyl)-3-{[4-(4-methylpiperazin-1-yl)benzoyl]amino}-1H-thieno[3,2-c]pyrazole-5-carboxamide], the IC50 is less than 100 nM.

`CN1CCN(c2ccc(C(=O)Nc3n[nH]c4cc(C(=O)NCc5ccc(C(F)(F)F)cc5)sc34)cc2)CC1` [Compound 104, 3-{[4-(4-methylpiperazin-1-yl)benzoyl]amino}-N-[4-(trifluoromethyl)benzyl]-1H-thieno[3,2-c]pyrazole-5-carboxamide]: the IC50 is less than 100 nM.

On to `CCNC(=O)c1cc2[nH]nc(NC(=O)c3ccc(C(C)(C)C)cc3)c2s1` [Compound 66, 3-[(4-tert-butylbenzoyl)amino]-N-ethyl-1H-thieno[3,2-c]pyrazole-5-carboxamide], for which the IC50 is less than 100 nM.

`CN1CCN(c2ccc(C(=O)Nc3n[nH]c4cc(C(=O)NCc5cccc(Cl)c5)sc34)cc2)CC1` [Compound 96, N-(3-chlorobenzyl)-3-{[4-(4-methylpiperazin-1-yl)benzoyl]amino}-1H-thieno[3,2-c]pyrazole-5-carboxamide] displayed an IC50 of less than 100 nM.

For `CC(NC(=O)c1cc2[nH]nc(NC(=O)c3ccc(N4CCOCC4)cc3)c2s1)c1ccc(Cl)cc1` (stereo not shown) [Compound 130, N-[1-(4-chlorophenyl)ethyl]-3-[(4-morpholin-4-ylbenzoyl)amino]-1H-thieno[3,2-c]pyrazole-5-carboxamide], the IC50 is less than 100 nM.

In turn, `O=C(Nc1n[nH]c2cc(C(=O)NCc3ccc(Cl)cc3)sc12)c1ccc(N2CCOCC2)cc1` [Compound 134, N-(4-chlorobenzyl)-3-[(4-morpholin-4-ylbenzoyl)amino]-1H-thieno[3,2-c]pyrazole-5-carboxamide] showed an IC50 of less than 100 nM.

Consider `CN1CCN(c2ccc(C(=O)Nc3n[nH]c4cc(C(=O)NCc5ccc(Cl)cc5)sc34)cc2)CC1` [Compound 97, N-(4-chlorobenzyl)-3-{[4-(4-methylpiperazin-1-yl)benzoyl]amino}-1H-thieno[3,2-c]pyrazole-5-carboxamide], for which the half-inhibitory concentration (IC50) is less than 100 nM.

`O=C(Nc1n[nH]c2cc(C(=O)NC(c3ccccc3)c3ccccc3)sc12)c1ccc(N2CCOCC2)cc1` [Compound 128, N-benzhydryl-3-[(4-morpholin-4-ylbenzoyl)amino]-1H-thieno[3,2-c]pyrazole-5-carboxamide] had a half-maximal inhibitory concentration (IC50) of less than 100 nM.

`CC[C@@H](NC(=O)c1cc2[nH]nc(NC(=O)c3ccc(N4CCOCC4)cc3)c2s1)c1ccccc1` [Compound 131, 3-[(4-morpholin-4-ylbenzoyl)amino]-N-[(1R)-1-phenylpropyl]-1H-thieno[3,2-c]pyrazole-5-carboxamide] returned an IC50 of less than 100 nM.

Consider `CN1CCN(c2ccc(C(=O)Nc3n[nH]c4cc(C(=O)NCc5cccc(F)c5)sc34)cc2)CC1` [Compound 94, N-(3-fluorobenzyl)-3-{[4-(4-methylpiperazin-1-yl)benzoyl]amino}-1H-thieno[3,2-c]pyrazole-5-carboxamide], for which the half-inhibitory concentration (IC50) was less than 100 nM.

On to `Cc1c(C(=O)NCc2ccc(F)cc2)sc2c(NC(=O)c3cccs3)n[nH]c12` [Compound 146, N-(4-fluorobenzyl)-6-methyl-3-[(thien-2-ylcarbonyl)amino]-1H-thieno[3,2-c]pyrazole-5-carboxamide], for which the half-maximal inhibitory concentration (IC50) was less than 100 nM.

`Cc1cccc(Cl)c1NC(=O)c1cc2[nH]nc(NC(=O)c3ccc(N4CCN(C)CC4)cc3)c2s1` [Compound 109, N-(2-chloro-6-methylphenyl)-3-{[4-(4-methylpiperazin-1-yl)benzoyl]amino}-1H-thieno[3,2-c]pyrazole-5-carboxamide] had an IC50 of less than 100 nM.

As to `Cc1cccc(C)c1NC(=O)c1cc2[nH]nc(NC(=O)c3ccc(N4CCN(C)CC4)cc3)c2s1` [Compound 108, N-(2,6-dimethylphenyl)-3-{[4-(4-methylpiperazin-1-yl)benzoyl]amino}-1H-thieno[3,2-c]pyrazole-5-carboxamide], the IC50 is less than 100 nM.

With `CN1CCN(c2ccc(C(=O)Nc3n[nH]c4cc(C(=O)NCc5ccccc5Cl)sc34)cc2)CC1` [Compound 106, N-(2-chlorobenzyl)-3-{[4-(4-methylpiperazin-1-yl)benzoyl]amino}-1H-thieno[3,2-c]pyrazole-5-carboxamide], the IC50 was less than 100 nM.

In the next experiment the target is cdk2/Cyclin A (Homo sapiens, UniProt P24941). Nature of the experiment: Inhibition assay of cdk2/Cyclin A activity (SPA). The note with it: 10 µM ATP, 60 min at room temperature. In kind it is biochemical. As to the method:
as §1, §2
Inhibition assay of cdk2/Cyclin A activity
Kinase reaction: 4 µM in house biotinylated histone H1 (Sigma # H-5505) substrate, 10 µM ATP (0.1 microCi P^33γ-ATP), 1.1 nM Cyclin A/CDK2 complex, inhibitor in a final volume of 30 µl buffer (TRIS HCl 10 mM pH 7.5, MgCl2 10 mM, DTT 7.5 mM + 0.2 mg/ml BSA) were added to each well of a 96 U bottom. After incubation for 60 min at room temperature, the reaction was stopped by addition of 100 µl PBS buffer containing 32 mM EDTA, 500 µM cold ATP, 0.1% Triton X100 and 10mg/ml streptavidin coated SPA beads. After 20 min incubation, 110 µL of suspension were withdrawn and transferred into 96-well OPTIPLATEs containing 100 µl of 5M CsCl. After 4 hours, the plates were read for 2 min in a Packard TOP-Count radioactivity reader.
as §3
Regarding `CCCCNC(=O)c1cc2[nH]nc(NC(=O)c3cccs3)c2s1` [Compound 79, N-butyl-3-[(thien-2-ylcarbonyl)amino]-1H-thieno[3,2-c]pyrazole-5-carboxamide], the IC50 is less than 500 nM.

Consider `CN1CCN(C(=O)c2cc3[nH]nc(NC(=O)c4ccc(F)cc4)c3o2)CC1` [Compound 167, 4-fluoro-N-{5-[(4-methylpiperazin-1-yl)carbonyl]-1H-furo[3,2-c]pyrazol-3-yl}benzamide], for which the concentration for half-maximal inhibition (IC50) was less than 500 nM.

In turn, `C=CCNC(=O)c1cc2[nH]nc(NC(=O)NCc3ccccc3)c2s1` [Compound 87, N-allyl-3-{[(benzylamino)carbonyl]amino}-1H-thieno[3,2-c]pyrazole-5-carboxamide] displayed a half-inhibitory concentration (IC50) of less than 500 nM.

The molecule `CCCCNC(=O)c1cc2[nH]nc(NC(=O)C3CC3)c2s1` [Compound 86, N-butyl-3-[(cyclopropylcarbonyl)amino]-1H-thieno[3,2-c]pyrazole-5-carboxamide] displayed a concentration for half-maximal inhibition (IC50) of less than 500 nM.

In turn, `CCCCNC(=O)c1cc2[nH]nc(NC(=O)C3CC3)c2s1` [Compound 85, N-butyl-3-[(cyclopropylcarbonyl)amino]-1H-thieno[3,2-c]pyrazole-5-carboxamide] displayed a half-maximal inhibitory concentration (IC50) of less than 500 nM.

Regarding `CCCCNC(=O)c1cc2[nH]nc(NC(=O)CCCC)c2s1` [Compound 84, N-butyl-3-(pentanoylamino)-1H-thieno[3,2-c]pyrazole-5-carboxamide], the IC50 is less than 500 nM.

`CN1CCN(C(=O)c2cc3[nH]nc(NC(=O)c4ccc(F)cc4)c3s2)CC1` [Compound 63, 4-fluoro-N-{5-[(4-methylpiperazin-1-yl)carbonyl]-1H-thieno[3,2-c]pyrazol-3-yl}benzamide] showed an IC50 of less than 500 nM.

As to `Cc1c(C(=O)NCc2ccc(F)cc2)sc2c(NC(=O)c3cccs3)n[nH]c12` [Compound 146, N-(4-fluorobenzyl)-6-methyl-3-[(thien-2-ylcarbonyl)amino]-1H-thieno[3,2-c]pyrazole-5-carboxamide], the IC50 is less than 500 nM.

`Cc1c(C(=O)NCc2ccc(F)cc2)sc2c(NC(=O)c3ccc(F)cc3)n[nH]c12` [Compound 145, 3-[(4-fluorobenzoyl)amino]-N-(4-fluorobenzyl)-6-methyl-1H-thieno[3,2-c]pyrazole-5-carboxamide]: the half-inhibitory concentration (IC50) was less than 500 nM.

`O=C(Nc1n[nH]c2cc(C(=O)NCc3ccccc3)sc12)c1cc(F)cc(F)c1` [Compound 65, N-benzyl-3-[(3,5-difluorobenzoyl)amino]-1H-thieno[3,2-c]prazole-5-carboxamide] displayed a half-inhibitory concentration (IC50) of less than 500 nM.

The target in the next experiment is PAK4 (Homo sapiens, UniProt O96013). Put plainly: PAK4 inhibition. In kind it is biochemical.
Chain of PAK4 (O96013 whole entry, species assumed): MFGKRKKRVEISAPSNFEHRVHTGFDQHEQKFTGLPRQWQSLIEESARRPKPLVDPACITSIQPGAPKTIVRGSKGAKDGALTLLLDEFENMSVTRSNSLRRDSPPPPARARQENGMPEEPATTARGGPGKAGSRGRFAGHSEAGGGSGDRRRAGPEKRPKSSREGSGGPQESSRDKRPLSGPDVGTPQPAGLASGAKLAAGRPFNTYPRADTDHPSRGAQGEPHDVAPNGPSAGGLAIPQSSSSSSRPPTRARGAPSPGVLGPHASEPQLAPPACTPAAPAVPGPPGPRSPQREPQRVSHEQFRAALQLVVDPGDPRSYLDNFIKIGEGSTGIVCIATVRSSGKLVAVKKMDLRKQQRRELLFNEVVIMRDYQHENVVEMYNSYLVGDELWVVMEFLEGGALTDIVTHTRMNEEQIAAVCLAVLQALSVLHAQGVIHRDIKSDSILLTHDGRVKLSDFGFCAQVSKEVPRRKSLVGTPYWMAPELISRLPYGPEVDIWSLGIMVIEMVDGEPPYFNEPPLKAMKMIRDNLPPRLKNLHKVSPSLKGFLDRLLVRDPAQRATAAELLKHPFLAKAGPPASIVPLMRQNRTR
Details: not given
Consider `CN1CCN(c2ccc(C(=O)Nc3n[nH]c4cc(C(=O)NCc5ccccc5)sc34)cc2)CC1` [Compound 91, N-benzyl-3-{[4-(4-methylpiperazin-1-yl)benzoyl]amino}-1H-thieno[3,2-c]pyrazole-5-carboxamide], for which the half-maximal inhibitory concentration (IC50) is less than 500 nM.

The molecule `CN1CCN(c2ccc(C(=O)Nc3n[nH]c4cc(C(=O)NCc5cccc(Cl)c5)sc34)cc2)CC1` [Compound 96, N-(3-chlorobenzyl)-3-{[4-(4-methylpiperazin-1-yl)benzoyl]amino}-1H-thieno[3,2-c]pyrazole-5-carboxamide] registered a half-maximal inhibitory concentration (IC50) of less than 500 nM.

In turn, `CC[C@@H](NC(=O)c1cc2[nH]nc(NC(=O)c3ccc(N4CCOCC4)cc3)c2s1)c1ccccc1` [Compound 131, 3-[(4-morpholin-4-ylbenzoyl)amino]-N-[(1R)-1-phenylpropyl]-1H-thieno[3,2-c]pyrazole-5-carboxamide] registered a half-inhibitory concentration (IC50) of less than 500 nM.
